Source: patent publication US11442059B2, “Method for treating a chronic itch condition by administering small molecule MrgprX4 antagonists” (The Johns Hopkins University, priority 2017, dated 2022)

Tests used:
[1] = target: T1, MRGPRX2 (Homo sapiens, UniProt Q96LB1); assay: Cell membrane chromatography, MRGPRX2/CMC column; format: binding; conditions: affinity chromatography elution profile
T1 construct: expressed in transfected cells; host or cells: HEK293 (MRGPRX2-HEK) membranes on silica
T1 sequence (Q96LB1 1-330): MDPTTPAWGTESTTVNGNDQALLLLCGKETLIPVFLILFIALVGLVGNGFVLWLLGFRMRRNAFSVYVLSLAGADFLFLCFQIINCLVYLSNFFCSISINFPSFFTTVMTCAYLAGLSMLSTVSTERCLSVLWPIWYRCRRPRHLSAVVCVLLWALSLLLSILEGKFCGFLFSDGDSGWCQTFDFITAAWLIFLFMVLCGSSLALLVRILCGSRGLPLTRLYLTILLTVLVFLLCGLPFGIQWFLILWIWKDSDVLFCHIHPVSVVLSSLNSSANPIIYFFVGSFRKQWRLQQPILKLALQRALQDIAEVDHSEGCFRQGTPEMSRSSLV
Protocol: CMC analysis was performed with a Shimadzu LC-2010A apparatus that consisted of pumps, degasser, autosampler, column oven, and a diode-array detector (Shimadzu, Kyoto, Japan). The data were acquired by the Lab-solution program (Shimadzu). The mobile phase consisted of phosphate-buffered saline (PBS; 5 mM, pH 7.4) and was delivered at a flow rate of 0.2 ml/min. The stock solutions (100 μM) of lamotrigine were prepared by separately dissolving the standard drugs in methanol. Standard solutions at various concentrations were prepared by diluting the stock solutions with the mobile phase. The MRGPRX2/CMC and MRGPRX4/CMC column was prepared as follows. Briefly, MRGPRX4-expressed HEK293 cells (1×10^8) were harvested and centrifuged (1000 g, 10 min, at 4° C.). Cells were washed with physiological saline (pH=7.4) by centrifugation at 1000 g for 10 min at 4° C. Cells were lysed by ultrasonic in Tris-HCl (50 mM, pH=7.4) for 30 min and centrifuged twice at 1000 g for 10 min at 4° C. The collected supernatant was then centrifuged at 12000 g for 20 min at 4° C. and the pellet was resuspended in 5 ml ice-cold physiological saline solution. […] The cell membrane suspension was homogenized/adsorbed with the activated silica under vacuum with agitation at 4° C. overnight. […]

[2] = target: T2, Mrgpra1-GFP (Mus musculus, UniProt Q91WW5); assay: Receptor internalization assay, Mrgpra1-GFP HEK293 cells; format: cell-based; conditions: 37° C.
T2 construct: expressed in transfected cells
T2 sequence (Q91WW5 1-304): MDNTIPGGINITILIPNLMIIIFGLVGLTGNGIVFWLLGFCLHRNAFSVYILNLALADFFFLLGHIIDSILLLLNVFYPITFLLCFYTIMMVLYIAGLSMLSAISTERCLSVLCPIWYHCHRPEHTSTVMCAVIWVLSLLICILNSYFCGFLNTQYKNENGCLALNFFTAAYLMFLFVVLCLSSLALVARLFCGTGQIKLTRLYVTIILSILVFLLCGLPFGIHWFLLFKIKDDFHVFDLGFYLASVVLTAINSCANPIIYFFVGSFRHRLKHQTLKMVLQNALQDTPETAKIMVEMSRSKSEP
Protocol: To label the drug with red-fluorescent dye, […] of LTG was dissolved in 50 μl dimethyformamide (DMF) first, and further diluted with 450 μl reaction buffer (0.1M sodium bicarbonate buffer, pH9.0) to obtain LTG at a concentration of 7.8 mM. Then, 50 μl of Texas-red-conjugated sulfonyl chloride (Thermo Fisher Scientific, T1905) dissolved in DMF at 10 mg ml−1 was slowly added into LTG solution. The reaction was incubated at 4° C. for 1 hour with continuous stirring. The mixture was then diluted into cell culture medium for further use. LTG labeled with Texas Red dye can create bright red-fluorescence with excitation/emission maxima ˜595/615 nm. HEK293 cells stably expressing Mrgpra1-GFP, Mrgprc11-GFP or MRGPRX4-GFP fusion protein were grown in DMEM with 10% FBS. After 4-6 hours of serum starvation, cells were treated with either medium, dye alone, unlabeled LTG or Texas-Red-labeled LTG at 37° C. for 15 or 60 min. Cells were washed with PBS and fixed with 4% paraformaldehyde in PBS. The subcellular localization of Mrgpr-GFP or drug was visualized under a confocal fluorescence microscope with a 400× magnification (Zeiss LSM 700).

[3] = target: MRGPRX4 (Homo sapiens, UniProt Q96LA9); assay: Cell membrane chromatography, MRGPRX4/CMC column; format: binding; parameters: expressed in transfected cells; whole cells or crude membrane fraction
Protocol: CMC analysis was performed with a Shimadzu LC-2010A apparatus that consisted of pumps, degasser, autosampler, column oven, and a diode-array detector (Shimadzu, Kyoto, Japan). The data were acquired by the Lab-solution program (Shimadzu). The mobile phase consisted of phosphate-buffered saline (PBS; 5 mM, pH 7.4) and was delivered at a flow rate of 0.2 ml/min. The stock solutions (100 μM) of lamotrigine were prepared by separately dissolving the standard drugs in methanol. Standard solutions at various concentrations were prepared by diluting the stock solutions with the mobile phase. The MRGPRX2/CMC and MRGPRX4/CMC column was prepared as follows. Briefly, MRGPRX4-expressed HEK293 cells (1×10^8) were harvested and centrifuged (1000 g, 10 min, at 4° C.). Cells were washed with physiological saline (pH=7.4) by centrifugation at 1000 g for 10 min at 4° C. […] KD value of lamotrigine was determined by means of the MRGPRX4/CMC system as follows. […] This mobile phase with different concentrations of each compound was separately pumped through the MRGPRX4/CMC column at a flow rate of 0.2 ml min^−1 under the gradient program and the breakthrough curves of the compound with different concentrations were recorded. […] Moreover, KD could be determined by calculating the ratio of the intercept to the slope, and [R]s was obtained from the inverse of the intercept.

Sequence of MRGPRX4 (Q96LA9 whole entry): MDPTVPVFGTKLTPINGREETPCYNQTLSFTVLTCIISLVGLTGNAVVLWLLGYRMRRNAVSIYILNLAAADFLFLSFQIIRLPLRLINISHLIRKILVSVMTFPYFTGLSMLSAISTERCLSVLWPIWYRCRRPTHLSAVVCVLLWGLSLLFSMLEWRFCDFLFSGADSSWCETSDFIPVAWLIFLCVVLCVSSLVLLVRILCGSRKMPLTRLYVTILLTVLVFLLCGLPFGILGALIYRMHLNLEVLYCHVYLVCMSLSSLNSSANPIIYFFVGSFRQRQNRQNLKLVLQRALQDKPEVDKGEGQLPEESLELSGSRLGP

For `Nc1nnc(-c2cccc(Cl)c2Cl)c(N)n1` [LTG, Lamotrigine], the “retention on MRGPRX2/CMC column” value [1] was “cannot retain”, the “internalization of Mrgpra1-GFP” value [2] was “can induce the internalization” and the “Retention time on MRGPRX4/CMC column” value ([3]; affinity chromatography elution profile) was 16.7 min. For the same molecule, the Kd ([3]; regression 1/[LR]s versus 1/[L]m, n=5, read-out: KD (MRGPRX4/CMC breakthrough curves)) was 417 nM.
